The assay has as its target Estrogen receptor (Homo sapiens, UniProt Q92731+P03372). The assay can be described thus: Displacement of [3H]estradiol from estrogen receptor-ligand binding domain. Format: protein assay.

The term EC50 denotes the concentration giving half of the maximal effect. The low end stands for higher potency in that assay, the high end for lower potency in that assay.

Molecules are shown by their SMILES.

Consider `C[C@]12CC(CCOC(=O)CCCNC(=O)c3ccc(-c4c5ccc([nH]5)c(-c5ccccc5)c5nc(c(-c6ccccc6)c6nc(c(-c7ccccc7)c7ccc4[nH]7)C=C6)C=C5)cc3)[C@@H]3c4ccc(O)cc4CC[C@H]3[C@@H]1CCC2O` (stereo partly specified), for which the EC50 was determined as 274 nM.

The values above are taken from ChEMBL document CHEMBL1131842, “Synthesis and estrogen receptor binding affinity of a porphyrin-estradiol conjugate for targeted photodynamic therapy of cancer” (Bioorg Med Chem Lett, 1999).
